In US6495376B1, “Methods and compositions for regulating protein-protein interactions” (Beth Israel Deaconess Medical Center, priority 1999, dated 2002):

How the values were obtained:
[1] = biological target: EQPLpTPVTDL (Cdc25 Peptide); assay: Fluorescence anisotropy binding to fluorescein-labeled phosphorylated Cdc25 peptide; conditions: GST-WW-domains
[2] = system: neurofibrillary tangles in AD brain sections; assay: Binding of recombinant Pin1 added onto brain sections, immunostaining; design: species or system human; conditions: Pin1 at 0.5 μM
Protocol: To further confirm that Pin1 has specific affinity for PHFs, recombinant Pin1 was added onto brain sections, washed, and then subjected to immunostaining using affinity purified Pin1 antibodies to localize bound Pin1. To localization exogenously added Pin1 in brain sections, 50 μm sections were cut from formalin fixed frontal cortex or hippocampus of human brains, endogenous peroxidase activity blocked with H2O2, followed by incubation with Pin1 at 0.5 μM. The sections were incubated with the mAb TG3 or anti-Pin1 antibodies that had been purified using GST-Pin1 glutathione beads, and visualized by the immunoperoxidase staining protocol, to detect endogenous Pin1, fixed brain sections were first microwaved in an antigen retrieval buffer (Biogenex), as described by the manufacturer, then subjected to immunostaining procedure.

[3] = system: temperature-sensitive ptf1 yeast mutant (YPM2); assay: Rescue of temperature-sensitive ptf1 yeast mutant (in vivo function); type: cell-based; conditions: YPM2 cells, restrictive temperature
Protocol: Given the essential role of the WW-domain in conferring Pin1-binding specificity in vitro, a critical question is whether this domain is important in vivo. To address this question, experiments using the PIN1 yeast homologue, ESS1/PTF1 were performed. ESS1/PTF1 is essential for cell growth and human Pin1 can carry out this essential function when transfected into yeast cells (Lu, K. P. et al., Nature 380:544 (1996); Hanes, S. D. et al., Yeast 5:55 (1989); Hani, J. et al., FEBS Lett. 365:198 (1995)). A temperature-sensitive ptf1 mutant strain, YPM2, grows at the permissive temperature (23° C.), but not at the restrictive temperature (30° C.) (Hanes, S. D. et al., Yeast 5:55 (1989); Hani, J. et al., FEBS Lett. 365:198 (1995)). This phenotype is completely rescued by a 1.5 kb PTF1 genomic fragment, which also contains the promoter and the 3′ processing sequence (FIG. 3). To insure that all human Pin1 proteins were expressed at physiological levels under normal regulation, the coding sequence of the fully functional ESS1/PTF1 gene in a Yepvector was replaced with the coding sequence of the human PIN1 (or Pin1 mutant) cDNA (FIG. 3) and transformed into a temperature-sensitive ptf1 strain. Transformants were selected on minimal media minus Leu at the permissive temperature (23° C.) and protein expression was detected by immunoblotting analysis using 12CA5 monoclonal antibody specific for the HA epitope tag inserted at the N-terminus. […] Those strains expressing similar levels of Pin1 and Pin1 mutants were grown at permissive and nonpermissive temperature.

Substance | Kd [1] [µM] | binding in AD brain sections [2] | complementation of temperature-sensitive ptf1 phenotype (in words) [3]
Pin1 WW-domain: N-terminal WW-domain (amino acids 1-54) of Pin1 (MADEEKLPPGWEKRMSRSSGRVYYFNHITNASQWERPSGNSSSGGKNGQGEPAR; left off: a dimerising Fc or GST) | 2.2 |  | 
Pin1: wild-type human prolyl isomerase (PPIase) Pin1 with N-terminal WW-domain; tag cleaved in Table 2 |  | strongly bound neurofibrillary tangles and neurites | fully complemented the temperature-sensitive phenotype
